Experimental data from ChEMBL document CHEMBL3046025, “Fungitoxic Properties of N-Phenylformamidoximes in Control of Benzimidazole-Resistant Isolates of Fungi” (1992).
Active and inactive are the calls of the source. No cut-off for these calls is given here.

Legend:
Botrytis cinerea [1] = assay: Antifungal activity against Benzimidalzole-resistant Botryotinia fuckeliana isolate Bc-44 infected kidney bean leaves at 200 ppm treated as foliar application followed by incubation for 7 days in green house condition; type: functional
Cercospora beticola [2] = assay: Antifungal activity against Benzimidalzole-resistant Cercospora beticola isolate Cb-19 infected in sugar beet seedlings at 12.5 ppm treated as foliar application 7 days prior to inoculation; type: functional
Cercospora beticola [3] = assay: Antifungal activity against Benzimidalzole-resistant Cercospora beticola isolate Cb-19 infected in sugar beet seedlings at 3.1 ppm 24 hr-post inoculation; type: functional
Botrytis cinerea [4] = assay: Antifungal activity against Benzimidalzole-resistant Botryotinia fuckeliana isolate Bc-44 infected kidney bean leaves at 50 ppm applied as soil drench 3 days prior to inoculation; type: functional
Botrytis cinerea [5] = assay: Antifungal activity against Benzimidalzole-sensitive Botryotinia fuckeliana isolate Bc-9 infected compound-treated kidney bean leaves at 50 ppm after 4 days; type: functional
Botrytis cinerea [6] = assay: Antifungal activity against Benzimidalzole-sensitive Botryotinia fuckeliana isolate Bc-9 infected compound-treated kidney bean leaves at 200 ppm after 4 days; type: functional
Botrytis cinerea [7] = assay: Ratio of EC50 for Benzimidalzole-resistant Botryotinia fuckeliana isolate Bc-40 to EC50 for Benzimidalzole-resistant Botryotinia fuckeliana isolate Bc-31; type: functional
Botrytis cinerea [8] = assay: Ratio of EC50 for Benzimidalzole-sensitive Botryotinia fuckeliana isolate Bc-9 to EC50 for Benzimidalzole-resistant Botryotinia fuckeliana isolate Bc-31; type: functional
Botrytis cinerea [9] = assay: Ratio of EC50 for Benzimidalzole-sensitive Botryotinia fuckeliana isolate Bc-3 to EC50 for Benzimidalzole-resistant Botryotinia fuckeliana isolate Bc-44; type: functional
Botrytis cinerea [10] = assay: Ratio of EC50 for Benzimidalzole-sensitive Botryotinia fuckeliana isolate Bc-3 to EC50 for Benzimidalzole-resistant Botryotinia fuckeliana isolate Bc-31; type: functional
Botrytis cinerea [11] = assay: Antifungal activity against Benzimidalzole-resistant Botryotinia fuckeliana isolate Bc-44 infected compound-treated kidney bean leaves at 200 ppm after 4 days; type: functional
Cercospora beticola [12] = assay: Antifungal activity against Benzimidalzole-resistant Cercospora beticola isolate Cb-19 infected in sugar beet seedlings at 200 ppm applied as soil drench 3 days prior to inoculation; type: functional
Botrytis cinerea [13] = assay: Antifungal activity against Benzimidalzole-resistant Botryotinia fuckeliana isolate Bc-20 at 0.001 to 1000 ppm after 3 days by agar dilution method; type: functional, organism-based
Botrytis cinerea [14] = assay: Antifungal activity against Benzimidalzole-resistant Botryotinia fuckeliana isolate Bc-40 at 0.001 to 1000 ppm after 3 days by agar dilution method; type: functional, organism-based
Cercospora beticola [15] = assay: Ratio of EC50 for Benzimidalzole-resistant Cercospora beticola isolate 20-2 to EC50 for Benzimidalzole-resistant Cercospora beticola isolate 18-2; type: functional
Cercospora beticola [16] = assay: Ratio of EC50 for […] to EC50 for Benzimidalzole-resistant Cercospora beticola isole 28-8; type: functional
Cercospora beticola [17] = assay: Ratio of EC50 for […] to EC50 for Benzimidalzole-resistant Cercospora beticola isole Cb-19; type: functional
Botrytis cinerea [18] = assay: Antifungal activity against Benzimidalzole-resistant Botryotinia fuckeliana isolate Bc-44 at 0.001 to 1000 ppm after 3 days by agar dilution method; type: functional, organism-based
Cercospora beticola [19] = assay: Ratio of EC50 for Benzimidalzole-resistant Cercospora beticola isolate 18-11 to EC50 for Benzimidalzole-resistant Cercospora beticola isolate 49-4; type: functional
Cercospora beticola [20] = assay: Ratio of EC50 for Benzimidalzole-resistant Cercospora beticola isolate 18-11 to EC50 for Benzimidalzole-resistant Cercospora beticola isolate 18-2; type: functional
Cercospora beticola [21] = assay: Ratio of EC50 for Benzimidalzole-resistant Cercospora beticola isolate 18-11 to EC50 for Benzimidalzole-resistant Cercospora beticola isole 28-8; type: functional
Cercospora beticola [22] = assay: Ratio of EC50 for Benzimidalzole-resistant Cercospora beticola isolate 6-13 to EC50 for Benzimidalzole-resistant Cercospora beticola isolate 49-4; type: functional
Cercospora beticola [23] = assay: Ratio of EC50 for Benzimidalzole-resistant Cercospora beticola isolate 6-13 to EC50 for Benzimidalzole-resistant Cercospora beticola isolate 18-2; type: functional
Cercospora beticola [24] = assay: Ratio of EC50 for Benzimidalzole-resistant Cercospora beticola isolate 6-13 to EC50 for Benzimidalzole-resistant Cercospora beticola isole Cb-19; type: functional
Cercospora beticola [25] = assay: Antifungal activity against Benzimidalzole-resistant Cercospora beticola isolate 20-2 at 0.001 to 1000 ppm after 14 days by agar dilution method; type: functional, organism-based
Cercospora beticola [26] = assay: Antifungal activity against Benzimidalzole-sensitive Cercospora beticola isolate 24-3 at 0.001 to 1000 ppm after 14 days by agar dilution method; type: functional, organism-based
Cercospora beticola [27] = assay: Antifungal activity against Benzimidalzole-sensitive Cercospora beticola isolate 22-5 at 0.001 to 1000 ppm after 14 days by agar dilution method; type: functional, organism-based
Cercospora beticola [28] = assay: Antifungal activity against Benzimidalzole-resistant Cercospora beticola isolate 28-8 at 0.001 to 1000 ppm after 14 days by agar dilution method; type: functional, organism-based
Cercospora beticola [29] = assay: Ratio of EC50 for Benzimidalzole-sensitive Cercospora beticola isolate 24-3 to EC50 for Benzimidalzole-resistant Cercospora beticola isolate 49-4; type: functional
Cercospora beticola [30] = assay: Ratio of EC50 for Benzimidalzole-sensitive Cercospora beticola isolate 24-3 to EC50 for Benzimidalzole-resistant Cercospora beticola isolate 1-3; type: functional
Cercospora beticola [31] = assay: Ratio of EC50 for Benzimidalzole-sensitive Cercospora beticola isolate 24-3 to EC50 for Benzimidalzole-resistant Cercospora beticola isole Cb-19; type: functional
Cercospora beticola [32] = assay: Ratio of EC50 for Benzimidalzole-sensitive Cercospora beticola isolate 22-5 to EC50 for Benzimidalzole-resistant Cercospora beticola isole 28-8; type: functional
Cercospora beticola [33] = assay: Ratio of EC50 for Benzimidalzole-sensitive Cercospora beticola isolate 18-1 to EC50 for Benzimidalzole-resistant Cercospora beticola isolate 49-4; type: functional
Cercospora beticola [34] = assay: Ratio of EC50 for Benzimidalzole-sensitive Cercospora beticola isolate 18-1 to EC50 for Benzimidalzole-resistant Cercospora beticola isole Cb-19; type: functional
Botrytis cinerea [35] = assay: Antifungal activity against Benzimidalzole-resistant Botryotinia fuckeliana isolate Bc-44 infected kidney bean leaves at 12.5 ppm 24 hr post-infection measured after 3 days; type: functional
Botrytis cinerea [36] = assay: Antifungal activity against Benzimidalzole-resistant Botryotinia fuckeliana isolate Bc-44 infected kidney bean leaves at 200 ppm 24 hr post-infection measured after 3 days; type: functional
Cercospora beticola [37] = assay: Antifungal activity against Benzimidalzole-resistant Cercospora beticola isolate 18-2 infected in compound-treated sugar beet seedlings at 3.1 ppm after 12 days; type: functional
Cercospora beticola [38] = assay: Antifungal activity against Benzimidalzole-resistant Cercospora beticola isolate 18-2 infected in compound-treated sugar beet seedlings at 12.5 ppm after 12 days; type: functional
Cercospora beticola [39] = assay: Antifungal activity against Benzimidalzole-resistant Cercospora beticola isolate 18-2 infected in compound-treated sugar beet seedlings at 200 ppm after 12 days; type: functional
Cercospora beticola [40] = assay: Antifungal activity against Benzimidalzole-resistant Cercospora beticola isolate Cb-19 infected in compound-treated sugar beet seedlings at 3.1 ppm after 12 days; type: functional
Cercospora beticola [41] = assay: Antifungal activity against Benzimidalzole-resistant Cercospora beticola isolate Cb-19 infected in compound-treated sugar beet seedlings at 50 ppm after 12 days; type: functional
Cercospora beticola [42] = assay: Antifungal activity against Benzimidalzole-resistant Cercospora beticola isolate Cb-19 infected in compound-treated sugar beet seedlings at 12.5 ppm after 12 days; type: functional
Cercospora beticola [43] = assay: Antifungal activity against Benzimidalzole-resistant Cercospora beticola isolate Cb-19 infected in compound-treated sugar beet seedlings at 200 ppm after 12 days; type: functional

Q: `C#CCOc1c(Cl)cc(N/C=N/OC)cc1Cl` was tested. Which Activity (Botrytis cinerea [1]) did it give?
A: 100%

Q: What about the Activity (Cercospora beticola [2]) of the same compound?
A: 93%

Q: And the Activity (Cercospora beticola [3])?
A: 44%

Q: What about the Activity (Botrytis cinerea [4]) of the same compound?
A: 0%

Q: And the Activity (Botrytis cinerea [5])?
A: 5%

Q: What about the Activity (Botrytis cinerea [6]) of the same compound?
A: 8%

Q: What about the Ratio EC50 (Botrytis cinerea [7]) of the same compound?
A: > 1000

Q: And the Ratio EC50 (Botrytis cinerea [8])?
A: > 1000

Q: And the Ratio EC50 (Botrytis cinerea [9])?
A: > 1000

Q: What about the Ratio EC50 (Botrytis cinerea [10]) of the same compound?
A: > 1000

Q: What about the Activity (Botrytis cinerea [11]) of the same compound?
A: 100%

Q: And the Activity (Cercospora beticola [12])?
A: 72%

Q: And the Activity (Botrytis cinerea [13])?
A: inactive

Q: And the Activity (Botrytis cinerea [14])?
A: inactive

Q: And the Ratio EC50 (Cercospora beticola [15])?
A: > 1000

Q: And the Ratio EC50 (Cercospora beticola [16])?
A: > 1000

Q: What about the Ratio EC50 (Cercospora beticola [17]) of the same compound?
A: > 1000

Q: And the Activity (Botrytis cinerea [18])?
A: Active

Q: What about the Ratio EC50 (Cercospora beticola [19]) of the same compound?
A: > 1000

Q: What about the Ratio EC50 (Cercospora beticola [20]) of the same compound?
A: > 1000

Q: And the Ratio EC50 (Cercospora beticola [21])?
A: > 1000

Q: And the Ratio EC50 (Cercospora beticola [22])?
A: > 1000

Q: And the Ratio EC50 (Cercospora beticola [23])?
A: > 1000

Q: And the Ratio EC50 (Cercospora beticola [24])?
A: > 1000

Q: And the Activity (Cercospora beticola [25])?
A: inactive

Q: What about the Activity (Cercospora beticola [26]) of the same compound?
A: inactive

Q: What about the Activity (Cercospora beticola [27]) of the same compound?
A: inactive

Q: What about the Activity (Cercospora beticola [28]) of the same compound?
A: Active

Q: What about the Ratio EC50 (Cercospora beticola [29]) of the same compound?
A: > 1000

Q: And the Ratio EC50 (Cercospora beticola [30])?
A: > 1000

Q: What about the Ratio EC50 (Cercospora beticola [31]) of the same compound?
A: > 1000

Q: What about the Ratio EC50 (Cercospora beticola [32]) of the same compound?
A: > 1000

Q: And the Ratio EC50 (Cercospora beticola [33])?
A: > 1000

Q: And the Ratio EC50 (Cercospora beticola [34])?
A: > 1000

Q: And the Activity (Botrytis cinerea [35])?
A: 93%

Q: What about the Activity (Botrytis cinerea [36]) of the same compound?
A: 100%

Q: What about the Activity (Cercospora beticola [37]) of the same compound?
A: 91%

Q: What about the Activity (Cercospora beticola [38]) of the same compound?
A: 94%

Q: And the Activity (Cercospora beticola [39])?
A: 100%

Q: And the Activity (Cercospora beticola [40])?
A: 91%

Q: And the Activity (Cercospora beticola [41])?
A: 100%

Q: What about the Activity (Cercospora beticola [42]) of the same compound?
A: 100%

Q: What about the Activity (Cercospora beticola [43]) of the same compound?
A: 100%

Q: How did the Activity (Botrytis cinerea [1]) turn out when `C#CCOc1cc(N/C=N/OC)cc(Cl)c1OCC#C` was run?
A: 100%

Q: What about the Activity (Cercospora beticola [2]) of the same compound?
A: 80%

Q: What about the Activity (Cercospora beticola [3]) of the same compound?
A: 54%

Q: And the Activity (Botrytis cinerea [4])?
A: 6%

Q: What about the Activity (Botrytis cinerea [5]) of the same compound?
A: 0%

Q: What about the Activity (Botrytis cinerea [6]) of the same compound?
A: 7%

Q: And the Ratio EC50 (Botrytis cinerea [7])?
A: > 1000

Q: What about the Ratio EC50 (Botrytis cinerea [8]) of the same compound?
A: > 1000

Q: And the Ratio EC50 (Botrytis cinerea [9])?
A: > 1000

Q: What about the Ratio EC50 (Botrytis cinerea [10]) of the same compound?
A: > 1000

Q: What about the Activity (Botrytis cinerea [11]) of the same compound?
A: 100%

Q: And the Activity (Cercospora beticola [12])?
A: 94%

Q: And the Activity (Botrytis cinerea [13])?
A: inactive

Q: And the Activity (Botrytis cinerea [14])?
A: inactive

Q: And the Ratio EC50 (Cercospora beticola [15])?
A: > 1000

Q: And the Ratio EC50 (Cercospora beticola [16])?
A: > 1000

Q: And the Ratio EC50 (Cercospora beticola [17])?
A: > 1000

Q: And the Activity (Botrytis cinerea [18])?
A: Active

Q: And the Ratio EC50 (Cercospora beticola [19])?
A: > 1000

Q: And the Ratio EC50 (Cercospora beticola [20])?
A: > 1000

Q: What about the Ratio EC50 (Cercospora beticola [21]) of the same compound?
A: > 1000

Q: What about the Ratio EC50 (Cercospora beticola [22]) of the same compound?
A: > 1000

Q: And the Ratio EC50 (Cercospora beticola [23])?
A: > 1000

Q: What about the Ratio EC50 (Cercospora beticola [24]) of the same compound?
A: > 1000

Q: What about the Activity (Cercospora beticola [25]) of the same compound?
A: inactive

Q: And the Activity (Cercospora beticola [26])?
A: inactive

Q: And the Activity (Cercospora beticola [27])?
A: inactive

Q: And the Activity (Cercospora beticola [28])?
A: Active

Q: And the Ratio EC50 (Cercospora beticola [29])?
A: > 1000

Q: And the Ratio EC50 (Cercospora beticola [30])?
A: > 1000

Q: And the Ratio EC50 (Cercospora beticola [31])?
A: > 1000

Q: What about the Ratio EC50 (Cercospora beticola [32]) of the same compound?
A: > 1000

Q: What about the Ratio EC50 (Cercospora beticola [33]) of the same compound?
A: > 1000

Q: And the Ratio EC50 (Cercospora beticola [34])?
A: > 1000

Q: What about the Activity (Botrytis cinerea [35]) of the same compound?
A: 100%

Q: And the Activity (Botrytis cinerea [36])?
A: 100%

Q: And the Activity (Cercospora beticola [37])?
A: 84%

Q: And the Activity (Cercospora beticola [38])?
A: 100%

Q: What about the Activity (Cercospora beticola [39]) of the same compound?
A: 100%

Q: And the Activity (Cercospora beticola [40])?
A: 94%

Q: What about the Activity (Cercospora beticola [41]) of the same compound?
A: 100%

Q: What about the Activity (Cercospora beticola [42]) of the same compound?
A: 100%

Q: What about the Activity (Cercospora beticola [43]) of the same compound?
A: 100%
